One data set in a line: in vitro. The following applies: human, plasma, half-life (T1/2).
The subject of data set [1] is SKOV-3. As to conditions: read-out: IC50 inhibition of cell growth.
Protocol: (§2) The IC50 values (μM) were estimated from concentration-response curves using non-linear regression for inhibition of cell growth. Data are expressed as mean±SD from at least three independent experiments, each in triplicate. Statistical analysis was performed using a two-way ANOVA (* p<0.05, the IC50 for each compared with that of their corresponding parent peptide for the same cell line).
The subject of a further data set is MDA-MB-231. As to conditions: read-out: IC50 inhibition of cell growth.
The subject of the next data set is SK-BR-3. As to conditions: read-out: IC50 inhibition of cell growth.
For the next data set, the system named is MCF-7. The following applies: read-out: IC50 inhibition of cell growth.
Data set [2] deals with SKOV-3. Briefly: MTT cytotoxicity assay, SKOV-3 (low LHRH-R expressing). It is filed as cell-based. The following applies: SKOV-3, 72 h. As to the method:
(§1) FIG. 4A to 4E: The cytotoxic activity of the peptide conjugate LD5-mc-vc-PABC-MMAE (LM) in comparison to MMAE was assessed in MDA-MB-231 (TNBC cell model) versus HMEC and MCF-10A (normal breast cells) and SKOV-3 (low LHRH-R expressing cell model), by MTT assay after incubating cells with compounds in serial dilution for 72 h. (A) The relative cellular viability was assessed in comparison to PBS-treated negative control group and IC50 value (nM) was calculated by non-linear regression (curve fit) for HMEC and MCF-10A (normal breast cells) and MDA-MB-231 (LHRH-R positive, TNBC cell model) and SKOV-3 (LHRH-R low expressing cells). (B) The cell viability in LD5-me-vc-PABC-MMAE (LM) was assessed in HMEC as normal breast cell line in comparison to MMAE by two-way ANOVA followed by Sidak's multiple comparisons test (****p<0.0001). (C) The cell viability in LD5-mc-vc-PABC-MMAE (LM) was assessed in MCF-10A as normal breast cell line in comparison to MMAE by two-way ANOVA followed by Sidak's multiple comparisons test (***p<0.001, **p<0.01, *p<0.05). (D) The cell viability in LD5-me-vc-PABC-MMAE (LM) was assessed in MDA-MB-231 (TNBC cell model) in comparison to MMAE by two-way ANOVA followed by Sidak's multiple comparisons test (****p<0.0001). […]

A further data set has as its system HMEC. Briefly: MTT cytotoxicity assay, HMEC normal breast cells. Format: cell-based. The following applies: 72 h. The method, then:
as §1

The subject of the next data set is MCF-10A. Kind of data set: MTT cytotoxicity assay, MCF-10A normal breast cells. It is filed as cell-based. The following applies: 72 h. As to the method:
as §1

The subject of another data set is α-tubulin polymerisation. Briefly: α-tubulin immunostaining in TNBC and normal breast cells. Format: cell-based. As to conditions: TNBC cells and normal breast cells, 1 µM, 18 h. As to the method:
FIGS. 8A and 8B: The effect of MMAE and LD5-me-vc-PABC-MMAE (LM) on α-tubulin polymerization. (A) MDA-MB-231 (TNBC cell model) and normal breast cells (HMEC and MCF-10A) were treated with free MMAE and LM at 1 μM and PBS (control) followed by immunostaining of α-tubulin with primary and secondary antibodies. The α-tubulin signals were detected by LEICA SPE2 confocal LSM. (B) The α-tubulin signal intensity was measured by Fiji J software in normal breast cells (HMEC and MCF-10A) and MDA-MB-231. ****p<0.0001 is the significance in the signal intensity in each cell line treated with PBS and LM in comparison to MMAE-treated cells. ####p<0.0001 is the significance of the α-tubulin signal intensity in MDA-MB-231 cells treated with LM in comparison to MCF-10A and HMEC cells. […] Statistical analysis was made in Prism by two-way ANOVA followed by Tukey's multiple comparisons test. Error bars are standard deviations (STDV), n=8 (3 independent repeats).
The intracellular effects of MMAE on α-tubulin polymerisation were examined using α-tubulin immunostaining in TNBC cells (MDA-MB-231) and normal breast cells (MCF-10A and HMEC) treated with MMAE and MMAE conjugated with LD5 (LD5-mc-vc-PABC-MMAE). TNBC cells and normal breast cells were fixed after incubating with […] of MMAE and LD5-mc-vc-PABC-MMAE for 18 h along with PBS as a control. […]

For data set [3], the system named is mice. As to conditions: cited from earlier work.
Data set [4] relates to mice. Briefly: MTD of brentuximab vedotin in mice (comparison). Format: in vivo. An excerpt:
Therefore, the MTD was not reached at this dose. With the corresponding ADCs bearing MMAE the MTD has been considerably lower.

Where two headings read alike, the source gives them in different places. Non-standard residues stand in square brackets, D forms with d. Residues, ends and D or L forms follow the SMILES beside them. *: point of attachment. Dolaproine = CO[C@@H]([C@@H]1CCCN1)[C@@H](C)C(=O)O; Dil = CC[C@H](C)[C@H](NC)[C@@H](CC(=O)O)OC; X1 = C[C@@H](N*)[C@@H](O)c1ccccc1; NMeV = CN[C@H](C(=O)O)C(C)C Bounds are passed on as bounds.

Protocol for MCF-7: as §2
Protocol for MDA-MB-231: as §2
Protocol for SK-BR-3: as §2
Protocol for in vitro: As described herein in vitro metabolic stability in plasma is defined as the susceptibility of a chemical compound to biotransformation in plasma, and is expressed as in vitro half-life (T1/2).
(B) The metabolic stability of LHRH peptide derivatives examined in human plasma and quantified by Liquid Chromatography-Mass-Spectrometry (LC-MS) in a time dependent manner. […] Statistical analysis was performed using a one-way ANOVA followed by Dunnett's post-hoc test. Error bars are standard deviations (STDV), p<0.05, n=9 (3 independent experiments each performed in triplicate).

As for `CCNC(=O)[C@@H]1CCCN1C(=O)[C@H](CCCNC(=N)N)NC(=O)[C@H](CC(C)C)NC(=O)[C@@H](CCCCN)NC(=O)[C@H](Cc1ccc(O)cc1)NC(=O)[C@H](CO)NC(=O)[C@H](Cc1c[nH]c2ccccc12)NC(=O)[C@H](Cc1c[nH]cn1)NC(=O)[C@@H]1CCC(=O)N1` [LD5, pGlu-His-Trp-Ser-Tyr-D-Lys-Leu-Arg-Pro-NHCH2CH3], the half-life in “in vitro” was ~6.08 h. The IC50 is > 100 µM in the data set with SKOV-3 [1], 38.1 ± 1.4 µM in the data set on MDA-MB-231, 33.5 ± 2.5 µM with SK-BR-3 and 47.6 ± 5.4 µM with MCF-7.
The corresponding values for `CC(C)C[C@H](NC(=O)[C@@H](Cc1c[nH]c2ccccc12)NC(=O)[C@H](Cc1ccc(O)cc1)NC(=O)[C@H](CO)NC(=O)[C@H](Cc1c[nH]c2ccccc12)NC(=O)[C@H](Cc1c[nH]cn1)NC(=O)[C@@H]1CCC(=O)N1)C(=O)N[C@@H](CCCNC(=N)N)C(=O)N1CCC[C@H]1C(=O)NCC(N)=O` [triptorelin, reference compound] are ~0.317 h, > 100 µM, 68.1 ± 8.1 µM, 81.2 ± 7.2 µM and 79.4 ± 5.3 µM.
The like results for `CCNC(=O)[C@@H]1CCCN1C(=O)[C@H](CCCNC(=N)N)NC(=O)[C@H](CC(C)C)NC(=O)[C@@H](CCCCNC(=O)CCCCCN)NC(=O)[C@H](Cc1ccc(O)cc1)NC(=O)[C@H](CO)NC(=O)[C@H](Cc1c[nH]c2ccccc12)NC(=O)[C@H](Cc1c[nH]cn1)NC(=O)[C@@H]1CCC(=O)N1` [LD6, pGlu-His-Trp-Ser-Tyr-D-Lys(Ahx)-Leu-Arg-Pro-NHCH2CH3] were, in that order, ~5.15 h, > 100 µM, 33.2 ± 2.5 µM, 29.7 ± 1.1 µM and 49.2 ± 2.1 µM.
On to `CC[C@H](C)[C@@H]([C@@H](CC(=O)N1CCC[C@H]1[C@H](OC)[C@@H](C)C(=O)N[C@H](C)[C@@H](O)c1ccccc1)OC)N(C)C(=O)[C@@H](NC(=O)[C@@H](NC)C(C)C)C(C)C` [MMAE, monomethyl auristatin E] (H-[NMeV]V[Dil][Dolaproine]-X1), for which the IC50 in the data set with SKOV-3 [2] worked out at 30 pM; with HMEC it was 0.00011 µM; in the data set on MCF-10A, 0.00083 µM. The “α-tubulin formation compared to PBS control” value with α-tubulin polymerisation is recorded as “dramatic decrease in α-tubulin formation”.
In the case of `CC(C)C[C@H](NC(=O)[C@@H](CCCCN)NC(=O)[C@H](Cc1ccc(O)cc1)NC(=O)[C@H](CO)NC(=O)[C@H](Cc1c[nH]c2ccccc12)NC(=O)[C@H](Cc1cnc[nH]1)NC(=O)[C@@H]1CCC(=O)N1)C(=O)N[C@@H](CCCNC(=N)N)C(=O)N1CCC[C@H]1C(=O)NCC(N)=O` [[k^6] LHRH, reference compound], the half-life in the data set “in vitro” was ~0.65 h.
In the case of `CCNC(=O)[C@@H]1CCCN1C(=O)[C@H](CCCNC(=N)N)NC(=O)[C@H](CC(C)C)NC(=O)[C@@H](CCCCN)NC(=O)[C@H](Cc1ccc(O)cc1)NC(=O)[C@H](CO)NC(=O)[C@H](Cc1c[nH]c2ccccc12)NC(=O)[C@H](Cc1c[nH]cn1)NC(=O)[C@@H](N)CCC(N)=O` [LD4, Gln-His-Trp-Ser-Tyr-D-Lys-Leu-Arg-Pro-NHCH2CH3] (H-QHWSY[dK]LRP-NHEt), in “in vitro”, the half-life was ~4.28 h. In addition, the IC50 is > 100 µM in the data set with SKOV-3 [1], 36.2 ± 0.8 µM with MDA-MB-231, 31.2 ± 4.8 µM with SK-BR-3 and 51.3 ± 3.1 µM with MCF-7.
“brentuximab vedotin: ADC in the clinic containing MMAE”: in the data set on mice [3], the MTD is 30 to 40 mg/kg. In addition, in the data set with mice [4], the “MTD expressed as equivalent of LHRHD-(mc-vc-PABC)-MMAE” value was “approximately 70 mg/kg”.
With `CC(C)C[C@H](NC(=O)CNC(=O)[C@H](Cc1ccc(O)cc1)NC(=O)[C@H](CO)NC(=O)[C@H](Cc1c[nH]c2ccccc12)NC(=O)[C@H](Cc1c[nH]cn1)NC(=O)[C@@H]1CCC(=O)N1)C(=O)N[C@@H](CCCNC(=N)N)C(=O)N1CCC[C@H]1C(=O)NCC(N)=O` [LHRH, pGlu-His-Trp-Ser-Tyr-Gly-Leu-Arg-Pro-Gly-NH2, reference compound], in the data set “in vitro”, the half-life was ~0.167 h. Further, the IC50 with SKOV-3 [1], in the data set with MDA-MB-231, in the data set with SK-BR-3 and with MCF-7 was > 100 µM throughout.

The values above are taken from patent US20220211860A1, “PEPTIDE DERIVATIVES AND CONJUGATES THEREOF FOR TREATING CANCER” (priority 2019, published 2022).
